This note sets out measurements from US10774046B2, “Inhibitors for the treatment of cancer and related methods” (UNIVERSITY OF LOUISVILLE RESEARCH FOUNDATION, INC., priority 2017, dated 2020).

For data set [1], the system named is H460 cells. Description: F2,6BP measurement in cells (coupled enzyme reaction). Type of data set: cell-based, human. How it is done:
Cells or tissues were prepared as previously described and F2,6BP content measured using a coupled enzyme reaction following a modification of the method of Van Schaftingen et al (VAN SCHAFTINGEN E et al. “A kinetic study of pyrophosphate:fructose-6-phosphate phosphotransferase from potato tubers. Application to a microassay of fructose 2,6-bisphosphate” Eur J Biochem (1982) Vol. 129, No. 1, pp. 191-195) and normalized to total cellular protein measured by the bicinchoninic acid assay (BCA, Thermo Scientific). For example, H460 cells were exposed to the indicated concentrations of MPN-2. In order to measure F2,6BP, cells were harvested, washed with PBS, lysed in NaOH/Tris acetate by heating at 80° C. and lysates neutralized to pH 7.2. F2,6BP content was measured using a coupled enzyme reaction following a modified method of Van Schaftingen et al (VAN SCHAFTINGEN E et al. “A kinetic study of pyrophosphate:fructose-6-phosphate phosphotransferase from potato tubers. Application to a microassay of fructose 2,6-bisphosphate” Eur J Biochem (1982) Vol. 129, No. 1, pp. 191-195). The F2,6BP concentration was normalized to total cellular protein measured by the bicinchoninic acid assay (BCA, Thermo Scientific). All data are expressed as the mean±SD of three experiments. Statistical significance was assessed by the two-sample t test (independent variable).
Method: In order to measure F26BP, H460 cells were exposed to increasing concentrations of the agents and were harvested, washed with PBS, lysed in NaOH/Tris acetate by heating at 80° C. and lysates neutralized to pH 7.2. F26BP content was measured using a coupled enzyme reaction following a modified method of Van Schaftingen et al. (Eur J Biochem. 1982; 129(1):191-195). The F26BP concentration was normalized to total cellular protein measured by the bicinchoninic acid assay (BCA, Thermo Scientific).

Data set [2] has as its system H460 cells. Description: glycolysis assay (3H2O from 5-[3H]glucose). Format: cell-based, human. As for the experimental part:
H460 cells were exposed to the indicated concentrations of MPN-2 and glycolysis production was examined. Cells growing in 6-well plates were incubated in 500 μl of complete medium containing 1 μCi of 5-[^3H]glucose per well for 60 min in 5% CO2 at 37° C. Media was collected, ^3H2O formed via glycolysis from the 5-[^3H]glucose measured and counts normalized as previously described. For example, the medium was then collected and centrifuged to pellet any suspended cells. To separate the ^3H2O formed via glycolysis from the 5-[^3H]glucose added to the medium, an evaporation technique in a sealed system was utilized. Briefly, 150 μl aliquots of medium were added to open tubes that were placed upright inside scintillation vials containing 1 ml of H2O. The scintillation vials were sealed, and the ^3H2O produced by glycolysis through enolase and released to the medium was allowed to equilibrate with the H2O in the outer vial for 48 h at 37° C. The amounts of ^3H2O that had diffused into the surrounding H2O was measured on a Tri-Carb 2910 liquid scintillation analyzer (Perkin Elmer) and compared with ^3H2O and 5-[^3H]glucose standards. Protein concentration was determined using the BCA assay and counts were normalized to protein concentration. All data are expressed as the mean±SD of three experiments. Statistical significance was assessed by the two-sample t test (independent variable).
Method: To examine glycolysis, H460 cells growing in 6-well plates were incubated in 500 μl of complete medium containing 1 μCi of 5-[^3H] glucose per well for 60 min in 5% CO2 at 37° C. The medium was then collected and centrifuged to pellet any suspended cells. To separate the ^3H2O formed via glycolysis from the 5-[^3H]glucose added to the medium, an evaporation technique in a sealed system was utilized. Briefly, 150 μl aliquots of medium were added to open tubes that were placed upright inside scintillation vials containing 1 ml of H2O. The scintillation vials were sealed, and the ^3H2O produced by glycolysis through enolase and released to the medium was allowed to equilibrate with the H2O in the outer vial for 48 h at 37° C. The amounts of ^3H2O that had diffused into the surrounding H2O was measured on a Tri-Carb 2910 liquid scintillation analyzer (Perkin Elmer) and compared with ^3H2O and 5-[^3H]glucose standards. Protein concentration was determined using the BCA assay and counts were normalized to protein concentration (previously described in CHESNEY et al. Oncotarget. 2014; 5(16):6670-6686.)

Another data set has as its system cancer cells. Description: glycolysis assay (3H2O from 5-[3H]glucose). Type of data set: cell-based. The following applies: increasing concentrations. As for the experimental part: Method: To examine glycolysis, cells growing in 6-well plates were incubated in 500 μl of complete medium containing 1 μCi of 5-[^3H] glucose per well for 60 min in 5% CO2 at 37° C. The medium was then collected and centrifuged to pellet any suspended cells. To separate the ^3H2O formed via glycolysis from the 5-[^3H]glucose added to the medium, an evaporation technique in a sealed system was utilized. Briefly, 150 μl aliquots of medium were added to open tubes that were placed upright inside scintillation vials containing 1 ml of H2O. The scintillation vials were sealed, and the ^3H2O produced by glycolysis through enolase and released to the medium was allowed to equilibrate with the H2O in the outer vial for 48 h at 37° C. The amounts of ^3H2O that had diffused into the surrounding H2O was measured on a Tri-Carb 2910 liquid scintillation analyzer (Perkin Elmer) and compared with ^3H2O and 5-[^3H]glucose standards. Protein concentration was determined using the BCA assay and counts were normalized to protein concentration (previously described in CHESNEY et al., “Fructose-2,6-bisphosphate synthesis by 6-phosphofructo-2-kinase/fructose-2,6-bisphosphatase 4 (PFKFB4) is required for the glycolytic response to hypoxia and tumor growth” Oncotarget (2014) Vol. 5, No. 16, pp. 6670-6686, which is herein incorporated by reference in its entirety).

Data set [3] in a line: two-week oral toxicity study. Format: in vivo. The following applies: 120 mg/kg PO for two weeks. How it is done:
Given the potential usefulness of oral administration in terms of cost and convenience, we elected to pursue this route in subsequent toxicity and efficacy pre-clinical studies. Initially, we dosed C57BL/6 mice with 120 mg/kg PO for two weeks and analyzed the effect on complete blood counts, electrolytes, hepatic and renal function, body mass and the gross and histological appearance of the brain, heart, lungs, liver, kidneys and spleen. […] Next, the effects of oral administration of 5MPN on intratumoral F2,6BP and glucose uptake by LLC xenografts was examined. There was a reduction in F2,6BP (FIG. 4E) and 2-[^18F]-fluoro-2-deoxyglucose uptake using positron emission tomography (FIG. 4F). It was confirmed that 5MPN caused a G1 arrest in LLC cells in vitro similar to H460 cells (FIG. 4G). The number of Ki67-positive cells was examined since Ki-67 expression correlated with later S and G2 phases of the cell cycle (SASAKI et al. “The cell cycle associated change of the Ki-67 reactive nuclear antigen expression” J Cell Physiol (1987) Vol. 133, No. 3, pp. 579-584).

Consider “5-[(8-methoxy-2-methylquinolin-1-ium-4-yl)amino]pentyl nitrate [MPN-2]”, for which the “F2,6BP production” value with H460 cells [1] (H460, indicated concentrations of MPN-2) is given as “inhibited”. Besides, in the data set on H460 cells [2] (H460, indicated concentrations of MPN-2, 48 hours), the intracellular glycolysis result is recorded as “decreased”.

As to `COc1cccc2c(NCCCCCNC(=O)C(F)(F)F)ccnc12` [Formula (VIII), 2,2,2-trifluoro-N-(5-((8-methoxyquinolin-4-yl)amino)pentyl)acetamide], in the data set with cancer cells, the “glycolysis (production of 3H2O relative to DMSO)” value is reported as “dose-dependent decrease”.

Regarding `COc1cccc2c(NCCCCCO[N+](=O)[O-])ccnc12` [5MPN, 5-[(8-methoxyquinolin-4-yl)amino]pentyl nitrate], the “intracellular concentration of F2,6BP” value in the data set on H460 cells [1] (H460, 10 μM 5MPN, 6-72 hours) is “reduced”. For the same molecule, the “effect of overexpression of PFKFB4 on reduction in F2,6BP” value in the data set on H460 cells [1] (H460 transfected with PFKFB4, 10 μM 5MPN, 24 hours) was “reversed”. Moreover, the “signs of toxicity (blood counts, electrolytes, hepatic and renal function, body mass, histology, behavior)” value in data set [3] is “no signs of toxicity”. The glycolysis result in the data set with H460 cells [2] (H460, 10 μM 5MPN, 6-72 hours) is given as “reduced”.
